US6537948B1, “Uracil compounds and use thereof” (Sumitomo Chemical Company, Limited, priority 2000, dated 2003)

Columns and labels:
Assay type in all cases: in vivo
[1] = tested on: velvetleaf (Abutilon theophrasti); assay: Test Example 2: soil surface treatment of field; details: soil surface spray, dosage 500 g/ha, 19 days after application
Excerpt: (§1) A cylindrical plastic pot having a diameter of 10 cm and a depth of 10 cm was filled with soil and then seeded with ivyleaf morningglory (Ipomoea hederacea) and velvetleaf (Abutilon theophrasti). Then, each of the compounds 1-2, 1-42, 1-48, 2-2, 2-7, 2-42, 2-45, 3-2, 3-12, 4-7, 4-85, 5-12-R, 5-12-S, 5-17, 6-2, 7-2, 7-6, 7-8, 7-12, 7-48, 7-50, 7-84, 7-118, 7-119, 7-125, 9-7, 9-27 and 9-45 was formulated into an emulsifiable concentrate according to Formulation Example 2 and then diluted to the prescribed amount with water, and the dilution was uniformly sprayed over the surface of the soil with a sprayer at a rate of 1000 liters per hectare. After the application, the test plants were grown in the greenhouse for 19 days, and the herbicidal activity was examined.

[2] = tested on: ivyleaf morningglory (Ipomoea hederacea); assay: Test Example 2: soil surface treatment of field; details: soil surface spray, dosage 500 g/ha, 19 days after application
Excerpt: as §1

[3] = tested on: velvetleaf (Abutilon theophrasti); assay: Test Example 1: foliar treatment of field; details: foliar spray, dosage 125 g/ha, 16 days after application
Method: (§2) A cylindrical plastic pot having a diameter of 10 cm and a depth of 10 cm was filled with soil and then seeded with ivyleaf morningglory (Ipomoea hederacea) and velvetleaf (Abutilon theophrasti). These test plants were grown in a greenhouse for 10 days. Then, each of compounds 1-2, 1-42, 1-45, 1-48, 2-2, 2-7, 2-42, 2-45, 3-2, 3-12, 4-7, 4-85, 5-12-R, 5-12-S, 5-17, 6-2, 7-2, 7-6, 7-8, 7-12, 7-48, 7-50, 7-84, 7-118, 7-119, 7-125, 9-7, 9-27 and 9-45 was formulated into an emulsifiable concentrate according to Formulation Example 2 and then diluted to the prescribed amount with water containing a spreading agent and the dilution was uniformly sprayed over the foliage of the test plants with a sprayer at a rate of 1000 liters per hectare. After the application, the test plants were grown in the greenhouse for 16 days, and the herbicidal activity was determined.

[4] = tested on: ivyleaf morningglory (Ipomoea hederacea); assay: Test Example 1: foliar treatment of field; details: foliar spray, dosage 125 g/ha, 16 days after application
Method: as §2

COC(=O)C(C)Oc1ccnc(Oc2cc(-n3c(=O)cc(C(F)(F)F)n(C)c3=O)c(F)cc2Cl)n1 (stereo not drawn) [Compound 1-2, methyl 2-([2-{2-chloro-4-fluoro-5-[3-methyl-2,6-dioxo-4-(trifluoromethyl)-1,2,3,6-tetrahydropyrimidin-1-yl]phenoxy}pyrimidin-4-yl]oxy)propionate]
completely controlled: growth of velvetleaf (herbicidal activity) [1] | growth of ivyleaf morningglory (herbicidal activity) [2] | growth of velvetleaf (herbicidal activity) [3] | growth of ivyleaf morningglory (herbicidal activity) [4]

COC(=O)C(C)Oc1cccnc1Oc1cc(-n2c(=O)cc(C(F)(F)F)n(C)c2=O)c(F)cc1Cl (stereo not drawn) [Compound 2-2, 2-{2-chloro-4-fluoro-5-[3-methyl-2,6-dioxo-4-(trifluoromethyl)-1,2,3,6-tetrahydropyrimidin-1-yl]phenoxy}-3-{1-(methoxycarbonyl)ethoxy}pyridine]
completely controlled: growth of velvetleaf (herbicidal activity) [1] | growth of ivyleaf morningglory (herbicidal activity) [2] | growth of velvetleaf (herbicidal activity) [3] | growth of ivyleaf morningglory (herbicidal activity) [4]

COC(=O)COc1cccnc1Oc1cc(-n2c(=O)cc(C(F)(F)F)n(C)c2=O)c(F)cc1Cl [Compound 2-7, 2-{2-chloro-4-fluoro-5-[3-methyl-2,6-dioxo-4-(trifluoromethyl)-1,2,3,6-tetrahydropyrimidin-1-yl]phenoxy}-3-(methoxycarbonyl)methoxypyridine]
completely controlled: growth of velvetleaf (herbicidal activity) [1] | growth of ivyleaf morningglory (herbicidal activity) [2] | growth of velvetleaf (herbicidal activity) [3] | growth of ivyleaf morningglory (herbicidal activity) [4]

COC(=O)C(C)Oc1cccc(Oc2cc(-n3c(=O)cc(C(F)(F)F)n(C)c3=O)c(F)cc2Cl)n1 (stereo not drawn) [Compound 2-42, 2-{2-chloro-4-fluoro-5-[3-methyl-2,6-dioxo-4-(trifluoromethyl)-1,2,3,6-tetrahydropyrimidin-1-yl]phenoxy}-6-{1-(methoxycarbonyl)ethoxy}pyridine]
completely controlled: growth of velvetleaf (herbicidal activity) [1] | growth of ivyleaf morningglory (herbicidal activity) [2] | growth of velvetleaf (herbicidal activity) [3] | growth of ivyleaf morningglory (herbicidal activity) [4]

COC(=O)COc1cccc(Oc2cc(-n3c(=O)cc(C(F)(F)F)n(C)c3=O)c(F)cc2Cl)n1 [Compound 2-45, 2-{2-chloro-4-fluoro-5-[3-methyl-2,6-dioxo-4-(trifluoromethyl)-1,2,3,6-tetrahydropyrimidin-1-yl]phenoxy}-6-(methoxycarbonyl)methoxypyridine]
completely controlled: growth of velvetleaf (herbicidal activity) [1] | growth of ivyleaf morningglory (herbicidal activity) [2] | growth of velvetleaf (herbicidal activity) [3] | growth of ivyleaf morningglory (herbicidal activity) [4]

COC(=O)C(C)Oc1nccc(Oc2cc(-n3c(=O)cc(C(F)(F)F)n(C)c3=O)c(F)cc2Cl)n1 (stereo not drawn) [Compound 3-2, methyl 2-([4-{2-chloro-4-fluoro-5-[3-methyl-2,6-dioxo-4-(trifluoromethyl)-1,2,3,6-tetrahydropyrimidin-1-yl]phenoxy}pyrimidin-2-yl]oxy)propionate]
completely controlled: growth of velvetleaf (herbicidal activity) [1] | growth of ivyleaf morningglory (herbicidal activity) [2] | growth of velvetleaf (herbicidal activity) [3] | growth of ivyleaf morningglory (herbicidal activity) [4]

COC(=O)C(C)Oc1cc(Oc2cc(-n3c(=O)cc(C(F)(F)F)n(C)c3=O)c(F)cc2Cl)ncn1 (stereo not drawn) [Compound 3-12, methyl 2-([4-{2-chloro-4-fluoro-5-[3-methyl-2,6-dioxo-4-(trifluoromethyl)-1,2,3,6-tetrahydropyrimidin-1-yl]phenoxy}pyrimidin-6-yl]oxy)propionate]
completely controlled: growth of velvetleaf (herbicidal activity) [1] | growth of ivyleaf morningglory (herbicidal activity) [2] | growth of velvetleaf (herbicidal activity) [3] | growth of ivyleaf morningglory (herbicidal activity) [4]

COC(=O)COc1nc(C)ncc1Oc1cc(-n2c(=O)cc(C(F)(F)F)n(C)c2=O)c(F)cc1Cl [Compound 4-85, 5-{2-chloro-4-fluoro-5-[3-methyl-2,6-dioxo-4-(trifluoromethyl)-1,2,3,6-tetrahydropyrimidin-1-yl]phenoxy}-4-(methoxycarbonyl)methoxy-2-methylpyrimidine]
completely controlled: growth of velvetleaf (herbicidal activity) [1] | growth of ivyleaf morningglory (herbicidal activity) [2] | growth of velvetleaf (herbicidal activity) [3] | growth of ivyleaf morningglory (herbicidal activity) [4]

COC(=O)[C@@H](C)Oc1n[nH]c(C)c1Oc1cc(-n2c(=O)cc(C(F)(F)F)n(C)c2=O)c(F)cc1Cl [Compound 5-12-R, (R)-3-{1-(methoxycarbonyl)ethoxy}-4-{2-chloro-4-fluoro-5-[3-methyl-2,6-dioxo-4-(trifluoromethyl)-1,2,3,6-tetrahydropyrimidin-1-yl]phenoxy}-5-methylpyrazole]
completely controlled: growth of velvetleaf (herbicidal activity) [1] | growth of ivyleaf morningglory (herbicidal activity) [2] | growth of velvetleaf (herbicidal activity) [3] | growth of ivyleaf morningglory (herbicidal activity) [4]

COC(=O)[C@H](C)Oc1n[nH]c(C)c1Oc1cc(-n2c(=O)cc(C(F)(F)F)n(C)c2=O)c(F)cc1Cl [Compound 5-12-S, (S)-3-{1-(methoxycarbonyl)ethoxy}-4-{2-chloro-4-fluoro-5-[3-methyl-2,6-dioxo-4-(trifluoromethyl)-1,2,3,6-tetrahydropyrimidin-1-yl]phenoxy}-5-methylpyrazole]
completely controlled: growth of velvetleaf (herbicidal activity) [1] | growth of ivyleaf morningglory (herbicidal activity) [2] | growth of velvetleaf (herbicidal activity) [3] | growth of ivyleaf morningglory (herbicidal activity) [4]

COC(=O)COc1n[nH]c(C)c1Oc1cc(-n2c(=O)cc(C(F)(F)F)n(C)c2=O)c(F)cc1Cl [Compound 5-17, 3-(methoxycarbonyl)methoxy-4-{2-chloro-4-fluoro-5-[3-methyl-2,6-dioxo-4-(trifluoromethyl)-1,2,3,6-tetrahydropyrimidin-1-yl]phenoxy}-5-methylpyrazole]
completely controlled: growth of velvetleaf (herbicidal activity) [1] | growth of ivyleaf morningglory (herbicidal activity) [2] | growth of velvetleaf (herbicidal activity) [3] | growth of ivyleaf morningglory (herbicidal activity) [4]

COC(=O)C(C)Oc1ncccc1Oc1cc(-n2c(=O)cc(C(F)(F)F)n(C)c2=O)c(F)cc1Cl (stereo not drawn) [Compound 7-2, 3-{2-chloro-4-fluoro-5-[3-methyl-2,6-dioxo-4-(trifluoromethyl)-1,2,3,6-tetrahydropyrimidin-1-yl]phenoxy}-2-{1-(methoxycarbonyl)ethoxy} pyridine]
completely controlled: growth of velvetleaf (herbicidal activity) [1] | growth of ivyleaf morningglory (herbicidal activity) [2] | growth of velvetleaf (herbicidal activity) [3] | growth of ivyleaf morningglory (herbicidal activity) [4]

Cn1c(C(F)(F)F)cc(=O)n(-c2cc(Oc3cccnc3OCC(=O)O)c(Cl)cc2F)c1=O [Compound 7-6, 3-{2-chloro-4-fluoro-5-[3-methyl-2,6-dioxo-4-(trifluoromethyl)-1,2,3,6-tetrahydropyrimidin-1-yl]phenoxy}-2-carboxymethoxypyridine]
completely controlled: growth of velvetleaf (herbicidal activity) [1] | growth of ivyleaf morningglory (herbicidal activity) [2] | growth of velvetleaf (herbicidal activity) [3] | growth of ivyleaf morningglory (herbicidal activity) [4]

CCOC(=O)COc1ncccc1Oc1cc(-n2c(=O)cc(C(F)(F)F)n(C)c2=O)c(F)cc1Cl [Compound 7-8, 3-{2-chloro-4-fluoro-5-[3-methyl-2,6-dioxo-4-(trifluoromethyl)-1,2,3,6-tetrahydropyrimidin-1-yl]phenoxy}-2-(ethoxycarbonyl)methoxypyridine]
completely controlled: growth of velvetleaf (herbicidal activity) [1] | growth of ivyleaf morningglory (herbicidal activity) [2] | growth of velvetleaf (herbicidal activity) [3] | growth of ivyleaf morningglory (herbicidal activity) [4]

COC(=O)C(C)Oc1ccc(Oc2cc(-n3c(=O)cc(C(F)(F)F)n(C)c3=O)c(F)cc2Cl)cn1 (stereo not drawn) [Compound 7-12, 5-{2-chloro-4-fluoro-5-[3-methyl-2,6-dioxo-4-(trifluoromethyl)-1,2,3,6-tetrahydropyrimidin-1-yl]phenoxy}-2-{1-(methoxycarbonyl)ethoxy}pyridine]
completely controlled: growth of velvetleaf (herbicidal activity) [1] | growth of ivyleaf morningglory (herbicidal activity) [2] | growth of velvetleaf (herbicidal activity) [3] | growth of ivyleaf morningglory (herbicidal activity) [4]
